Measurements from patent US8853242B2, “Nitrogenous-ring acylguanidine derivative” (Astellas Pharma Inc., priority 2009, dated 2014).
Where a name gives a salt, the structure may show the parent alone.

Molecular target: human 5-HT5A receptor (Homo sapiens (Human), UniProt P47898)
Experiment: Test on a human 5-HT5A receptor binding inhibition ([3H]5-CT)
Settings: membrane from HEK293 cells expressing human 5-HT5A receptor, Ki calculated from IC50
Description: The ORF (open reading frame; protein coding region) of a human 5-HT5A receptor (Genbank AF498985) was cloned from a human hippocampus cDNA library, and then inserted into a pCR2.1 vector (Invitrogen), and Escherichia coli containing the plasmid was cultured in a large amount. Next, the full-length cDNA sequence of the human 5-HT5A receptor was analyzed, and recombined into a pCDNA3.1 vector (Invitrogen) as an expression vector and cultured in a large amount. HEK293 established cells (ATCC) derived from the human fetal kidney were seeded, the expression plasmid (1 μg) obtained above were added thereto with LIPOFECTAMINE 2000 (Invitrogen; 2 μl), the gene was transfected into HEK293 cells, and the expression cells were screened with a drug-resistant marker, Geneticin (G418 sulfate 500 μg/ml; Kanto Chemical Co., Inc.). Thus prepared recombinant cells which expressed the gene were cultured in a medium containing D-MEM (Dulbecco's modified eagle medium, Sigma), 10% FCS (Fetal calf serum: fetal bovine serum), 1% Pc./Sm (Penicillin/Streptomycin, Invitrogen), and 500 μg/ml G418 for 3 days. These experimental operations followed a manual for gene operation experiment and an instruction appended in a reagent, and the like, such as a known method (Sambrook, J. et al, Molecular Cloning-A Laboratory Manual”, Cold Spring Harabor laboratory, NY, 1989).
HEK293 cells for forced expressions of a human 5-HT5A receptor were cultured in a F500 plate, and scraped with a scraper. After centrifugation, the precipitate was collected, and an incubation buffer (50 mM Tris (HCl) (pH 7.4), 10 mM MgSO4, and 0.5 mM EDTA (ethylenediamine tetraacetic acid)) was added thereto. After homogenization, it was further centrifuged, and the incubation buffer was added to the precipitate, followed by thoroughly suspending. The operation was repeated, and protein concentration was measured, thereby completing preparation of the membrane.
A solution of the compound to be tested and 100 μM 5-CT (5-carboxamidetriptamine) in DMSO was added to a 96-well plate at 2 μl/well, suspended in an incubation buffer, and a membrane from HEK293 cells for forced expressions of a human 5-HT5A receptor prepared at 200 μg/ml was added at 100 μl/well. After incubation at room temperature for 15 minutes, a [^3H]5-CT solution (2 nM [^3H]5-CT, incubation buffer) was added thereto at 100 μl/well.
Separately, 100 μl of the solution was distributed into a liquid scintillation vial, and 2 ml of Aquasol II (registered trademark) was added thereto, followed by stirring. Then, radioactivity was measured by a liquid scintillation counter. It was incubated at 37° C. for 60 minutes. The reaction mixture was sucked into 96-well GF/C filter plate that had been pre-treated with 0.2% polyethyleneimine, and washed six times with an ice-cooled, 50 mM Tris (pH 7.5) buffer. The GF/C filter plate was dried.
Microscint TMPS (registered trademark) was added thereto at 40 μl/well. Radioactivity remaining on the GF/C filter plate was measured by a top counter.
The [^3H]5-CT binding inhibiting activity by the compound to be tested in each experiment was determined as an IC50 value with a radioactivity upon addition of DMSO alone being 0% inhibition, and a radioactivity upon addition of 1 μM 5-CT being 100% inhibition. Separately, Ki values were calculated from the Kd value of the [^3H]5-CT determined from Scatchard analysis, by the following equation. Ki=IC50(1+Concentraion of ligand added/Kd(4.95 nM))

Chain of human 5-HT5A receptor (P47898 whole entry): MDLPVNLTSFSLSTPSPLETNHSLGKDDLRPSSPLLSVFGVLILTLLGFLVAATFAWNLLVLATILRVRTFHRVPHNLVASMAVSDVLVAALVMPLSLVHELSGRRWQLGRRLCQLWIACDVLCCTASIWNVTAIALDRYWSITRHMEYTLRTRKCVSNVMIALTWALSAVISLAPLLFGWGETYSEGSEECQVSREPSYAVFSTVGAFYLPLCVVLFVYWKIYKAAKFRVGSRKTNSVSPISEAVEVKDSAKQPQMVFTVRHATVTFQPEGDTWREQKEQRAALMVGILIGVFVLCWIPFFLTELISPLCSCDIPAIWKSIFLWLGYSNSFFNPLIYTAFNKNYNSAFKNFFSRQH

Ki ([3H]5-CT binding) [nM]	Ki ([3H]5-CT binding inhibition) [nM]	SMILES
1 to 10	–	Cc1nc2ccc(C(=O)N=C(N)N)cc2c(-c2ccc(F)cc2Cl)c1Cl [Example 132]
10 to 100	–	CCc1cc(-c2c(F)cc(F)cc2F)c2cc(C(=O)N=C(N)N)ccc2n1 [Example 87]
1 to 10	–	NC(N)=NC(=O)c1ccc2ncc(Cl)c(-c3ccccc3F)c2c1 [Example 69]
10 to 100	–	Cc1nc2ccc(C(=O)N=C(N)N)cc2c(-c2ccc(F)cc2)c1C [Example 118]
10 to 100	–	COc1cc(C#N)ccc1-c1ccnc2ccc(C(=O)N=C(N)N)cc12 [Example 36]
10 to 100	–	NC(N)=NC(=O)c1ccc2c(F)cnc(-c3ccncc3F)c2c1 [Example 165]
10 to 100	–	NC(N)=NC(=O)c1ccc2c(Cl)cnc(-c3cc(F)c(F)cc3F)c2c1 [Example 212]
1 to 10	–	COc1cc(F)c(-c2ccnc3c(C)cc(C(=O)N=C(N)N)cc23)c(F)c1 [Example 58]
100 to 300	–	N#Cc1ccccc1-c1ccnc2ccc(C(=O)N=C(N)N)cc12 [Example 12]
10 to 100	–	NC(N)=NC(=O)c1ccc2ncc(C(F)(F)F)c(-c3ccc(F)cc3F)c2c1 [Example 86]
1 to 10	–	Cc1cccc(C)c1-c1ncc(Cl)c2ccc(C(=O)N=C(N)N)cc12 [Example 222]
1 to 10	–	Cc1nc2ccc(C(=O)N=C(N)N)cc2c(-c2c(F)cccc2Cl)c1C [Example 121]
1 to 10	–	Cc1nc2ccc(C(=O)N=C(N)N)cc2c(-c2ccc(F)cc2F)c1Cl [Example 88]
1 to 10	–	NC(N)=NC(=O)c1ccc2c(Cl)cnc(-c3ccc(Cl)cc3F)c2c1 [Example 195]
10 to 100	–	COc1ncccc1-c1c(Cl)cnc2ccc(C(=O)N=C(N)N)cc12 [Example 106]
10 to 100	–	NC(N)=NC(=O)c1ccc2nccc(-c3cc(Cl)ccc3Cl)c2c1 [Example 18]
10 to 100	–	Cc1cc(C(=O)N=C(N)N)cc2c(C3CC3)ccnc12 [Example 71]
1 to 10	–	Cc1cnc2ccc(C(=O)N=C(N)N)cc2c1-c1cccc(Cl)c1Cl [Example 24]
1 to 10	–	NC(N)=NC(=O)c1ccc2c(F)cnc(-c3c(O)cccc3F)c2c1 [Example 216]
1 to 10	–	Cc1cnc2ccc(C(=O)N=C(N)N)cc2c1-c1c(F)cc(F)cc1F [Example 17]
10 to 100	–	NC(N)=NC(=O)c1ccc2c(C(F)(F)F)cnc(-c3c(F)cccc3F)c2c1 [Example 196]
10 to 100	–	NC(N)=NC(=O)c1ccc2c(F)cnc(-c3cccc(F)c3F)c2c1 [Example 205]
1 to 10	–	Cc1nc2ccc(C(=O)N=C(N)N)cc2c(-c2ccc(F)cc2Cl)c1C [Example 126]

Ki ([3H]5-CT binding) [nM]	Ki ([3H]5-CT binding inhibition) [nM]	SMILES
1 to 10	–	NC(N)=NC(=O)c1ccc2nccc(-c3c(Cl)cc(Cl)cc3Cl)c2c1 [Example 27]
10 to 100	–	Cc1nc2ccc(C(=O)N=C(N)N)cc2c(-c2ccccc2F)c1C [Example 105]
10 to 100	–	N#Cc1ccc(-c2ccnc3ccc(C(=O)N=C(N)N)cc23)cc1 [Example 33]
–	1.3	NC(N)=NC(=O)c1ccc2ncc(Cl)c(-c3ccc(F)cc3F)c2c1 [Example 60]
10 to 100	–	NC(N)=NC(=O)c1ccc2nccc(-c3ccc(Cl)cc3F)c2c1 [Example 14]
1 to 10	–	Cc1nc(-c2c(F)cc(F)cc2F)c2cc(C(=O)N=C(N)N)ccc2c1F [Example 154]
10 to 100	–	NC(N)=NC(=O)c1ccc2nccc(-c3ccccc3)c2c1 [Example 4]
10 to 100	–	COc1cc(F)ccc1-c1ncc(F)c2ccc(C(=O)N=C(N)N)cc12 [Example 202]
10 to 100	–	NC(N)=NC(=O)c1cc(Cl)c2nccc(-c3c(F)cc(F)cc3F)c2c1 [Example 43]
1 to 10	–	Cc1cc(-c2ccc(F)cc2F)c2cc(C(=O)N=C(N)N)cc(C)c2n1 [Example 85]
1 to 10	–	NC(N)=NC(=O)c1ccc2nccc(-c3c(F)cc(F)cc3F)c2c1 [Example 5]
1 to 10	–	COc1cnc(-c2c(F)cccc2F)c2cc(C(=O)N=C(N)N)ccc12 [Example 197]
1 to 10	–	Cc1cc(-c2c(F)cc(F)cc2F)c2cc(C(=O)N=C(N)N)cc(C)c2n1 [Example 83]
1 to 10	–	NC(N)=NC(=O)c1ccc2ccnc(-c3ccc(Cl)cc3Cl)c2c1 [Example 138]
100 to 300	–	N#Cc1ccccc1-c1nccc2ccc(C(=O)N=C(N)N)cc12 [Example 139]
10 to 100	–	Cc1cc(C(=O)N=C(N)N)cc2c(C3CC3)c(Cl)cnc12 [Example 103]
10 to 100	–	NC(N)=NC(=O)c1ccc2c(CO)cnc(-c3c(F)cc(F)cc3F)c2c1 [Example 2, N-(diaminomethylene)-4-(hydroxymethyl)-1-(2,4,6-trifluorophenyl)isoquinoline-7-carboxamide fumarate]
10 to 100	–	N#Cc1cnc(-c2c(F)cc(F)cc2F)c2cc(C(=O)N=C(N)N)ccc12 [Example 143]
–	3.7	Cc1nc2ccc(C(=O)N=C(N)N)cc2c(-c2c(F)cc(F)cc2F)c1C [Example 114]
1 to 10	–	Cc1nc2ccc(C(=O)N=C(N)N)cc2c(-c2ccccc2F)c1Cl [Example 89]
1 to 10	–	NC(N)=NC(=O)c1ccc2c(F)cnc(-c3cccc(Cl)c3F)c2c1 [Example 201]
1 to 10	–	N#Cc1ccc(-c2nccc3ccc(C(=O)N=C(N)N)cc23)c(F)c1 [Example 141]
1 to 10	–	NC(N)=NC(=O)c1ccc2nccc(-c3c(F)cc(F)cc3Cl)c2c1 [Example 8]

Ki ([3H]5-CT binding) [nM]	Ki ([3H]5-CT binding inhibition) [nM]	SMILES
10 to 100	–	COc1cccc(F)c1-c1c(C)c(C)nc2ccc(C(=O)N=C(N)N)cc12 [Example 129]
10 to 100	–	NC(N)=NC(=O)c1ccc2nccc(-c3cc(Cl)c(F)cc3F)c2c1 [Example 20]
10 to 100	–	NC(N)=NC(=O)c1ccc2c(C3CC3)cnc(-c3c(F)cccc3F)c2c1 [Example 156]
1 to 10	–	NC(N)=NC(=O)c1ccc2c(Cl)cnc(-c3c(F)cc(F)cc3F)c2c1 [Example 142]
100 to 300	–	NC(N)=NC(=O)c1ccc2nc(C(F)(F)F)cc(-c3ccc(F)cc3F)c2c1 [Example 92]
10 to 100	–	Cc1cc(C(=O)N=C(N)N)cc2c(-c3cc(F)ccc3Cl)ccnc12 [Example 64]
1 to 10	–	NC(N)=NC(=O)c1ccc2nccc(-c3c(Cl)cccc3Cl)c2c1 [Example 19]
10 to 100	–	COc1cc(C#N)ccc1-c1c(C)c(C)nc2ccc(C(=O)N=C(N)N)cc12 [Example 120]
10 to 100	–	NC(N)=NC(=O)c1ccc2nccc(-c3c(F)cncc3F)c2c1 [Example 52]
10 to 100	–	NC(N)=NC(=O)c1ccc2nccc(-c3cccc(C(F)(F)F)c3F)c2c1 [Example 28]
1 to 10	3.4	NC(N)=NC(=O)c1ccc2c(F)cnc(-c3ccccc3Cl)c2c1 [Example 161]
1 to 10	–	COc1cccc(F)c1-c1ncc(Cl)c2ccc(C(=O)N=C(N)N)cc12 [Example 166]
10 to 100	–	NC(N)=NC(=O)c1ccc2nccc(-c3cc(F)ccc3Cl)c2c1 [Example 63]
1 to 10	–	Cc1cc(C(=O)N=C(N)N)cc2c(-c3ccc(F)cc3F)c(Cl)cnc12 [Example 99]
1 to 10	–	NC(N)=NC(=O)c1ccc2cccc(-c3c(F)cc(F)cc3F)c2n1 [Example 226]
1 to 10	–	NC(N)=NC(=O)c1ccc2ncc(Cl)c(C3=CCCC3)c2c1 [Example 107]
10 to 100	–	NC(N)=NC(=O)c1ccc2c(Cl)cnc(-c3cccc(Cl)c3Cl)c2c1 [Example 100]
1 to 10	–	Cc1cc(C(=O)N=C(N)N)cc2c(-c3c(F)cc(F)cc3Cl)ccnc12 [Example 65]
1 to 10	–	NC(N)=NC(=O)c1ccc2ccnc(-c3c(F)cccc3Cl)c2c1 [Example 134]
1 to 10	–	COc1ccc(-c2ccnc3c(C)cc(C(=O)N=C(N)N)cc23)c(Cl)c1 [Example 70]
1 to 10	–	NC(N)=NC(=O)c1ccc2ncc(Cl)c(-c3ccccc3)c2c1 [Example 74]
1 to 10	–	Cc1cc(C(=O)N=C(N)N)cc2c(-c3ccc(F)cc3F)ccnc12 [Example 44]
